Laboratory results reported in patent US20230250292A1, “AROMATIC HYDROCARBON-SOLUBLE ANTHRAQUINONE” (Dow Global Technologies LLC, priority 2020, published 2023).

Assays:
[1] = Storage stability in Aromatic 200 solvent at -10° C.; assay type: physicochemical; conditions: -10° C. freezer
Method: Storage stability experiments of Examples 1-3 as well as Comparative Examples 4 and 5 as well as Comparative Example 6 (a 50:50 molar physical blend of Comparative Examples 4 and 5) are conducted as follows. For each Example, a calibration line is generated by preparing 0.5 and 1.7 wt% solutions of each Example using a batch of Aromatic 200 supplied from TOTAL, identified as ATOSOL 200ND, and measuring the UV/vis absorbance at these known concentrations. The solutions are heated to 60° C. with stirring overnight and allowed to cool to ambient temperature for at least several hours, preferably overnight. For the 0.5 and 1.7 wt% solutions for each marker, UV/vis measurements are prepared by diluting an aliquot of each solution (exact weight recorded) into a known amount of xylenes to target an absorbance value below approximately 2.5. […] For other Examples, several drops of the targeted 10 wt% solution are filtered and a known amount of the filtrate is diluted with a known amount of xylenes to target an absorbance value below approximately 2.5. The initial concentration is determined by measuring the absorbance value of a known concentration of the filtered and diluted aliquot taken from the targeted 10 wt% solution. The expected UV/vis absorbance value of the aliquot is calculated based on the calibration standards, and this value is compared against the actual measured absorbance value. […]

[2] = Maximum (initial) soluble concentration in Aromatic 200 solvent by UV/vis; assay type: physicochemical; conditions: for Measured Initial Concentration: Aromatic 200 (ATOSOL 200ND), targeted 10 wt% solution, filtered, diluted in xylenes, UV/vis against 0.5 and 1.7 wt% calibration

Row | Storage stability: Concentration after storage at -10° C., 4 days [1] [wt%] | SMILES | Measured Initial Concentration [2] | Solubility of calibration solution in Aromatic 200 (solids observed) ([2]; 1.7 wt% solution in Aromatic 200, heated to 60° C. overnight, cooled to ambient)
1 | 4.2 | CCCCc1ccc(Nc2ccc(Nc3ccc(CCCC)cc3)c3c2C(=O)c2c(Nc4ccc(CCCC)cc4)ccc(Nc4ccc(CCCC)cc4)c2C3=O)cc1 [Comparative Example 4, 1,4,5,8-tetrakis(4-(n-butyl)phenylamino)anthracene-9,10-dione] | 7.0 wt% | –
2 | – | Cc1ccc(Nc2ccc(Nc3ccc(C)cc3)c3c2C(=O)c2c(Nc4ccc(C)cc4)ccc(Nc4ccc(C)cc4)c2C3=O)cc1 [Comparative Example 5, 1,4,5,8-tetrakis(4-methylaniline)anthracene-9,10-dione] | Solids observed at 1.7%, no measurement | solids are observed at 1.7 wt%
